Source: PubChem BioAssay (NCI)
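In this assay, cells in 96-well plates receive the compound at five concentrations for 48 hours. Endpoints are linearly interpolated between the surrounding concentrations. TGI: total growth inhibition.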

Assays:
Assay in all cases: NCI anticancer screen, dose series, 48 h
[1] = tested on: SF-295 CNS
[2] = tested on: LOX IMVI melanoma
[3] = tested on: SF-268 CNS
[4] = tested on: HCT-15 colon
[5] = tested on: HL-60(TB) leukemia
[6] = tested on: SNB-75 CNS
[7] = tested on: HCC-2998 colon
[8] = tested on: UACC-62 melanoma
[9] = tested on: KM12 colon
[10] = tested on: PC-3 prostate
[11] = tested on: ACHN renal
[12] = tested on: T-47D breast
[13] = tested on: HOP-92 NSCLC
[14] = tested on: SK-MEL-28 melanoma
[15] = tested on: RXF 393 renal
[16] = tested on: SF-539 CNS
[17] = tested on: RPMI-8226 leukemia
[18] = tested on: HT29 colon
[19] = tested on: UACC-257 melanoma
[20] = tested on: OVCAR-5 ovarian

SMILES	TGI [1]	TGI [2]	TGI [3]	TGI [4]	TGI [5]	TGI [6]	TGI [7]	TGI [8]	TGI [9]	TGI [10]	TGI [11]	TGI [12]	TGI [13]	TGI [14]	TGI [15]	TGI [16]	TGI [17]	TGI [18]	TGI [19]	TGI [20]
C/C(=N\NC(=S)N(C)CCN(C)C(=S)N/N=C(\C)c1ccccn1)c1ccccn1	19.6 µM	22.6 µM	12 µM	18.5 µM	3.95 µM	7.59 µM	38 µM	8.07 µM	14.3 µM	18.8 µM	11.4 µM	19 µM	16.4 µM	19.8 µM	3.46 µM	11.8 µM	23.7 µM	24.4 µM	11 µM	42 µM
Cc1ccc(NC2=N/C(=C/c3ccccc3)C(Cl)=N2)cc1	> 100 µM	> 100 µM	> 100 µM	> 100 µM	> 63.3 µM	> 100 µM	> 100 µM	> 100 µM	> 100 µM	> 100 µM	> 100 µM	> 100 µM	> 100 µM	> 100 µM	> 100 µM	> 100 µM	> 100 µM	> 100 µM	> 100 µM	> 100 µM
CSc1nc(SC)c2ncn(C3CC(Oc4ccc(C)cc4)C(COc4ccc(C)cc4)O3)c2n1 (stereo not given)	> 100 µM	> 100 µM	> 100 µM	> 100 µM	> 100 µM	> 100 µM	> 100 µM	> 100 µM	> 100 µM	> 100 µM	> 100 µM	> 100 µM	> 100 µM	> 100 µM		> 100 µM	> 100 µM	> 100 µM	> 100 µM	> 100 µM
Cc1nc(C(N)=S)sc1C(=O)CC(=O)C(=O)Nc1nc2ccccc2[nH]1	> 100 µM	> 100 µM	> 100 µM	> 100 µM	> 100 µM	> 100 µM	> 100 µM	> 100 µM	> 100 µM	> 100 µM	> 100 µM	> 100 µM	> 100 µM	> 100 µM	> 100 µM	> 100 µM	> 100 µM	> 100 µM	> 100 µM	> 100 µM
CNC(=O)CN(C)C(=O)CCC(=O)N(C)C	> 100 µM	> 100 µM	> 100 µM	> 100 µM	> 100 µM	> 100 µM	> 100 µM	> 100 µM	> 100 µM	> 100 µM	> 100 µM	> 100 µM	> 100 µM	> 100 µM		> 100 µM	> 100 µM	> 100 µM	> 100 µM	> 100 µM
CCC1C(=O)C(O)[C@H]2[C@@H]3C(O)CC4=CC(=O)CC[C@]4(C)[C@H]3CC[C@]12C (stereo not given in full)	> 50 µM	> 50 µM	> 50 µM	> 50 µM	> 50 µM	> 50 µM	> 50 µM	> 50 µM	> 50 µM	> 50 µM	> 50 µM	> 50 µM	> 50 µM	> 50 µM		> 50 µM	> 50 µM	> 50 µM	> 50 µM	> 50 µM
CCOC(=O)C(NCc1cccc(C(F)(F)F)c1)(NC(=O)CC)C(F)(F)F (stereo not given)	> 100 µM	> 100 µM	> 100 µM	> 100 µM	> 100 µM	> 100 µM	> 100 µM	> 100 µM	> 100 µM	> 100 µM	> 100 µM	> 100 µM	> 100 µM	> 100 µM	> 100 µM	> 100 µM	> 100 µM	> 100 µM	> 100 µM	> 100 µM
Cc1nc2c(o1)C(=O)c1ccccc1C2=Nc1ccc(N2CCOCC2)cc1	5.98 µM	8.62 µM	23.6 µM	15.8 µM	7.24 µM	5.03 µM	99.8 µM	3.73 µM	66.8 µM	7.37 µM	18.9 µM	19 µM	> 100 µM	7.69 µM	2.97 µM	6 µM	25.5 µM	60.9 µM	4.64 µM	33.6 µM
Cc1ccc(/C=C2\Cc3cccc(C)c3C2=O)c(C(=O)O)c1	> 100 µM	> 100 µM	> 100 µM	> 100 µM	> 100 µM	> 100 µM	> 100 µM		> 100 µM	> 100 µM	88.1 µM	> 100 µM	53.6 µM	> 100 µM	> 100 µM	> 100 µM	> 100 µM	> 100 µM	> 100 µM	> 100 µM
CN(C)CCCCN1c2ccccc2Sc2ccc(C(=O)c3ccccc3)cc21	4.82 µM	3.44 µM	17.7 µM	9.27 µM	3.97 µM	6.92 µM	3.97 µM	6.39 µM	4.99 µM	6.4 µM	7.19 µM	13 µM	8.99 µM	3.72 µM	4.17 µM	6.59 µM	> 100 µM	3.88 µM	3.76 µM	13.8 µM
O=C1C(Cl)C(c2cc3cc(Br)ccc3nc2Cl)N1c1ccc(Cl)cc1 (stereo not given)	> 25 µM	3.38 µM	9.69 µM	13.3 µM	15.5 µM	19.5 µM	8.04 µM	10.2 µM	> 25 µM	> 25 µM	11.2 µM	23.8 µM	7.2 µM	> 25 µM	10.6 µM	9.41 µM	14.1 µM	19.6 µM	12.6 µM	> 25 µM
Cc1ccc(-c2nc(-c3cnccn3)n(C3OC(CO)C(O)C(O)C3O)n2)cc1 (stereo not given)	> 100 µM	> 100 µM	> 100 µM	> 100 µM	> 100 µM	> 100 µM	> 100 µM	> 100 µM	> 100 µM	> 100 µM		> 100 µM	> 100 µM	> 100 µM	> 100 µM	> 100 µM	> 100 µM	> 100 µM	> 100 µM	> 100 µM
O=C(c1cc2c(c3ccccc13)NCCN=C2C(F)(F)F)C(F)(F)F	50.1 µM	38.4 µM	> 100 µM	> 100 µM	75.4 µM	> 100 µM	33 µM		> 100 µM	33.5 µM	68.3 µM	> 100 µM	86.6 µM	47.8 µM	> 100 µM	54.9 µM	27.4 µM	33.1 µM	42.7 µM	> 100 µM
COc1ccc(-n2c(N)c(C#N)c(C#N)c2-c2ccccc2)cc1	> 100 µM	> 100 µM	> 100 µM	> 100 µM	> 100 µM	68.6 µM	> 100 µM	> 100 µM	> 100 µM	> 100 µM	> 100 µM	> 100 µM	76.5 µM		> 100 µM	> 100 µM	> 100 µM	> 100 µM	> 100 µM	> 100 µM
N#Cc1nc(C(CO)N(Cc2ccccc2)C(=O)O)oc1N (stereo not given)	> 100 µM	> 100 µM	> 100 µM	> 100 µM	> 100 µM	> 100 µM	> 100 µM	> 100 µM	> 100 µM	> 100 µM	> 100 µM	> 100 µM	> 100 µM	> 100 µM	> 100 µM	> 100 µM	> 100 µM	> 100 µM	> 100 µM	> 100 µM
Cc1ccc2c(=O)cc(-c3ccsc3)[nH]c2n1	23.6 µM	> 56.6 µM	> 100 µM	> 62.9 µM	20.2 µM	35 µM	42.9 µM	> 100 µM	> 100 µM	> 61.9 µM	> 100 µM	> 74.9 µM	> 100 µM	> 100 µM	> 31 µM	33.2 µM		> 100 µM	> 100 µM	> 100 µM
C[C@]12CC[C@H](O)CC1=CC[C@@H]1[C@@H]2CC[C@]2(C)C(=N/O)/C(=C/c3ccc([N+](=O)[O-])cc3)C[C@@H]12	10.7 µM	21.5 µM	24.8 µM	29.8 µM	25 µM	18 µM	23 µM	28.6 µM	60.1 µM	14.3 µM	15.1 µM	30.5 µM	14.9 µM	22.8 µM	15.6 µM	19.3 µM	50.6 µM	23.5 µM	16.5 µM	21.5 µM
Nc1ncnc2c1ncn2[C@H]1CC[C@@H](NO)C1	> 100 µM	> 100 µM	> 100 µM	> 100 µM		> 100 µM	> 100 µM	> 100 µM	> 100 µM	> 100 µM	> 100 µM	> 100 µM	> 100 µM	> 100 µM	> 100 µM	> 100 µM	> 100 µM		> 100 µM	> 100 µM
CC(=O)O[C@H]1C(=O)[C@@]2(C)[C@H]([C@H](OC(=O)c3ccccc3)[C@]3(O)C[C@H](OC(=O)[C@H](O)[C@@H](NC(=O)C(C)(C)C)c4ccccc4)C(C)=C1C3(C)C)[C@]1(OC(C)=O)CO[C@@H]1C[C@@H]2O	1.61 µM	> 10 µM	> 10 µM	> 10 µM	0.0791 µM	2.19 µM	0.44 µM	> 10 µM	> 10 µM	1.31 µM	> 10 µM	> 10 µM	> 10 µM	> 10 µM	2.64 µM	0.413 µM	> 10 µM	> 10 µM	> 10 µM	> 8.6 µM
COC(=O)/C=C\C(C#N)(C#N)N=Cc1ccc(Br)s1	33 µM	7.39 µM	40.2 µM	6.63 µM	5.04 µM	29.4 µM	34.4 µM	24.9 µM	32.6 µM	26.8 µM	6.1 µM	> 30.6 µM	4.67 µM	33.7 µM	4.87 µM		7.11 µM		28.6 µM	31.5 µM
CN1CCN(CCCCN2c3ccccc3Sc3cc(N=[N+]=[N-])ccc32)CC1	5.65 µM	3.22 µM	22.4 µM	5.68 µM	6.08 µM	10.1 µM	2.92 µM	3.92 µM	3.48 µM	3.57 µM	4.56 µM	31.9 µM	6.43 µM	3.52 µM	9.83 µM	8.31 µM	5.88 µM	3.03 µM	3.89 µM	25.8 µM
O=c1[nH]cnc2c1ncn2[C@@H]1C[C@H]1CO		> 100 µM	> 100 µM	> 100 µM	> 100 µM	> 100 µM	> 100 µM	> 100 µM	> 100 µM	> 100 µM	> 100 µM	> 100 µM	> 100 µM	> 100 µM	> 100 µM	> 100 µM	> 100 µM	> 100 µM	> 100 µM	> 100 µM
O=C(O)[C@@H]1NC[C@H]2C(Br)=NO[C@H]21	> 100 µM	> 100 µM	> 100 µM	> 100 µM	> 100 µM	> 100 µM	> 100 µM	> 100 µM	> 100 µM	> 100 µM	> 100 µM	> 100 µM	> 100 µM	> 100 µM	> 100 µM		> 100 µM	> 100 µM	> 100 µM	> 100 µM
CC(=N\N=C\c1ccccn1)/C(C)=N/N=C(C)/C(C)=N/N=C/c1ccccn1	> 100 µM	> 100 µM	> 100 µM	> 100 µM	> 100 µM	> 100 µM	> 100 µM		> 100 µM	> 100 µM	> 100 µM	> 100 µM	> 100 µM	> 100 µM	> 100 µM	> 100 µM	> 100 µM	> 100 µM	> 100 µM	> 100 µM
